Patent US9409908B2 (priority 2012, dated 2016)
Counter-ions that a name gives are not always drawn. Like-named read-outs stand apart in the source and are kept apart here.

Tests used:
[1] = biological target: purified human Factor XIa (Homo sapiens (Human), UniProt P03951); assay: biochemical; format: biochemical
[2] = biological target: purified human plasma kallikrein (Homo sapiens (Human), UniProt P03952); assay: biochemical; format: biochemical
purified human plasma kallikrein, sequence (P03952 whole entry, looked up): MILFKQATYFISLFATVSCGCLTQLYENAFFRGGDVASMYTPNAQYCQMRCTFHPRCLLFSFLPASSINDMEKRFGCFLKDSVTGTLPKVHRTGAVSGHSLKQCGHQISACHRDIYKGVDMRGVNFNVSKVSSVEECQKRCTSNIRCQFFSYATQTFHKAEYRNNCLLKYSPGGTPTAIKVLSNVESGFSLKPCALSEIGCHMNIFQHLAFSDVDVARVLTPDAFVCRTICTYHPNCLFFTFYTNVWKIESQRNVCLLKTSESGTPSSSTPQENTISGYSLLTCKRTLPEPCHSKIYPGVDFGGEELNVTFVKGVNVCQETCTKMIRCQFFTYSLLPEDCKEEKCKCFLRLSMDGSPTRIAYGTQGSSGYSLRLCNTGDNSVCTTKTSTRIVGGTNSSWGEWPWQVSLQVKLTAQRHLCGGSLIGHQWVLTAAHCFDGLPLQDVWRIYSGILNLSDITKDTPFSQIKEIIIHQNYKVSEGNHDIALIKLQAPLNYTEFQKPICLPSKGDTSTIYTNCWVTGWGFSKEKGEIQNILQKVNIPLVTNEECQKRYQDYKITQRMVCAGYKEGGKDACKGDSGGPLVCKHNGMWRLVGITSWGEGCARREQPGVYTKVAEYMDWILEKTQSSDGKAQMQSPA
purified human plasma kallikrein, sequence (P03952 whole entry partner, looked up): as the sequence (P03952 whole entry, looked up) above

purified human Factor XIa, sequence (P03951 whole entry, looked up): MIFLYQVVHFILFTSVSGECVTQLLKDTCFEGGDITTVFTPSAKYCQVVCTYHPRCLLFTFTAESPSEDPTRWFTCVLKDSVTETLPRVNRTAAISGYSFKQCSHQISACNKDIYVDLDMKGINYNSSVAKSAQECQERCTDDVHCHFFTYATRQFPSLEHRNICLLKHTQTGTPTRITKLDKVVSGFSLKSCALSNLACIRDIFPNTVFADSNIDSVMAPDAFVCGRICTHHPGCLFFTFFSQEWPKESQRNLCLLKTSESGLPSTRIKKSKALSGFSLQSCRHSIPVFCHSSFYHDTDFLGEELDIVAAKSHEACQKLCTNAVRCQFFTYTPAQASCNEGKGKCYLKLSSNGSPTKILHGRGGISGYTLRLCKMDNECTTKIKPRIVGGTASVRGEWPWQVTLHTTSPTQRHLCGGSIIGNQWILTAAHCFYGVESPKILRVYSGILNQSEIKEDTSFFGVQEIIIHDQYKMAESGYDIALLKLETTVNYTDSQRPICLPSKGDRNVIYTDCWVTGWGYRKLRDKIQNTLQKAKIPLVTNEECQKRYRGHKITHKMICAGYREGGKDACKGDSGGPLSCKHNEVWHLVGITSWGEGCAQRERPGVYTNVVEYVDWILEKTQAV
purified human Factor XIa, sequence (P03951 whole entry partner, looked up): as the sequence (P03951 whole entry, looked up) above

Question: Which Ki ([1]; read-out: Factor XIa Ki) does the source give for `COC(=O)c1ccc2c(c1)-c1cccc(c1)[C@@H](N1CCC(c3c(C#N)ccc(Cl)c3F)=CC1=O)CCC[C@@H](C)C(=O)N2` [Example 170, Methyl (10R,14S)-14-[4-(3-chloro-6-cyano-2-fluorophenyl)-6-oxo-1,2,3,6-tetrahydropyridin-1-yl]-10-methyl-9-oxo-8-azatricyclo[13.3.1.0^2,7]nonadeca-1(18),2,4,6,15(19),16-hexaene-4-carboxylate] here?
Answer: 46.6 nM

Question: And the Ki ([2]; read-out: Plasma Kallikrein Ki)?
Answer: 7.73 nM

Question: Which results are given for `COC(=O)c1ccc2c(c1)-c1cccc(c1)[C@@H](N1CCC(c3c(C#N)ccc(C#N)c3F)=CC1=O)CCC[C@@H](C)C(=O)N2` [Example 168, Methyl (10R,14S)-14-[4-(3,6-dicyano-2-fluorophenyl)-6-oxo-1,2,3,6-tetrahydropyridin-1-yl]-10-methyl-9-oxo-8-azatricyclo[13.3.1.0^2,7]nonadeca-1(18),2,4,6,15(19),16-hexaene-4-carboxylate]?
Answer: Ki ([1]; read-out: Factor XIa Ki): > 417 nM; Ki ([2]; read-out: Plasma Kallikrein Ki): 1920 nM

Question: `CC1CCC[C@H](N2CCC(c3c(F)ccc(Cl)c3F)=CC2=O)c2cc(ccn2)-c2ccc(C(=O)O)cc2NC1=O` (stereo partly drawn) [Example 105, (14S)-14-[4-(3-Chloro-2,6-difluorophenyl)-6-oxo-1,2,3,6-tetrahydropyridin-1-yl]-10-methyl-9-oxo-8,16-diazatricyclo[13.3.1.0^2,7]nonadeca-1(18),2,4,6,15(19),16-hexaene-5-carboxylic acid, TFA salt] was tested. Which Ki ([1]; read-out: Factor XIa Ki) did it give?
Answer: > 342 nM

Question: What about the Ki ([2]; read-out: Plasma Kallikrein Ki) of the same molecule?
Answer: 3920 nM

Question: For `COC(=O)Nc1ccc2c(c1)NC(=O)[C@H](C)CCC[C@H](N1CCC(c3c(C#N)ccc(C#N)c3F)=CC1=O)c1cc-2cc(OC)n1` [Example 7, Methyl N-[(10R,14S)-14-[4-(3,6-dicyano-2-fluorophenyl)-6-oxo-1,2,3,6-tetrahydropyridin-1-yl]-17-methoxy-10-methyl-9-oxo-8,16-diazatricyclo[13.3.1.0^2,7]nonadeca-1(18),2,4,6,15(19),16-hexaen-5-yl]carbamate], which Ki ([1]; read-out: Factor XIa Ki) is on record?
Answer: 5.42 nM

Question: What about the Ki ([2]; read-out: Plasma Kallikrein Ki) of the same molecule?
Answer: 10 nM

Question: Which results are given for `C[C@@H]1CCC[C@H](N2CCC(c3c(-n4cnnn4)ccc(Cl)c3F)=CC2=O)c2cc(ccn2)-c2cc(F)c(F)cc2NC1=O` [Example 215, (10R,14S)-14-{4-[3-chloro-2-fluoro-6-(1H-1,2,3,4-tetrazol-1-yl)phenyl]-6-oxo-1,2,3,6-tetrahydropyridin-1-yl}-4,5-difluoro-10-methyl-8,16-diazatricyclo[13.3.1.0^2,7]nonadeca-1(19),2(7),3,5,15,17-hexaen-9-one, TFA salt]?
Answer: Ki ([1]; read-out: Factor XIa Ki): 0.07 nM; Ki ([2]; read-out: Plasma Kallikrein Ki): 3.61 nM

Question: With `COC(=O)c1ccc2c(c1)-c1ccnc(c1)[C@@H](N1CCC(c3c(C(F)(F)F)ccc(Cl)c3F)=CC1=O)CCC[C@@H](C)C(=O)N2` [Example 186, Methyl (10R,14S)-14-{4-[3-chloro-2-fluoro-6-(trifluoromethyl)phenyl]-6-oxo-1,2,3,6-tetrahydropyridin-1-yl}-10-methyl-9-oxo-8,16-diazatricyclo[13.3.1.0^2,7]nonadeca-1(19),2(7),3,5,15,17-hexaene-4-carboxylate] as the molecule, how does the Ki ([1]; read-out: Factor XIa Ki) read?
Answer: 57.9 nM

Question: And the Ki ([2]; read-out: Plasma Kallikrein Ki)?
Answer: 60.5 nM

Question: Which Ki ([1]; read-out: Factor XIa Ki) does the source give for `Cc1cc2cc3c(cc2[nH]1)NC(=O)[C@H](C)CCC[C@H](N1CCC(c2c(F)ccc(Cl)c2F)=CC1=O)c1cc-3ccn1` [Example 85, (13R,17S)-17-[4-(3-Chloro-2,6-difluorophenyl)-6-oxo-1,2,3,6-tetrahydropyridin-1-yl]-6,13-dimethyl-7,11,19-triazatetracyclo[16.3.1.0^2,10.0^4,8]docosa-1(22),2,4(8),5,9,18,20-heptaen-12-one, TFA salt] here?
Answer: 9.17 nM

Question: What about the Ki ([2]; read-out: Plasma Kallikrein Ki) of the same molecule?
Answer: 47 nM

Question: `C[C@@H]1CCC[C@H](N2CCC(c3cc(Cl)ccc3-n3cncn3)=CC2=O)c2cc(ccn2)-c2ccccc2NC1=O` [Example 71, (10R,14S)-14-{4-[5-Chloro-2-(1H-1,2,4-triazol-1-yl)phenyl]-6-oxo-1,2,3,6-tetrahydropyridin-1-yl}-10-methyl-8,16-diazatricyclo[13.3.1.0^2,7]nonadeca-1(19),2(7),3,5,15,17-hexaen-9-one, TFA salt] was tested. Which Ki ([1]; read-out: Factor XIa Ki) did it give?
Answer: 1.68 nM

Question: What about the Ki ([2]; read-out: Plasma Kallikrein Ki) of the same molecule?
Answer: 60 nM

Question: Which Ki ([1]; read-out: Factor XIa Ki) does the source give for `C[C@@H]1CCC[C@H](N2CCC(c3c(F)ccc(Cl)c3F)=CC2=O)c2cc(ccn2)-c2ccc(NC3O[C@@H](CO)[C@H](O)[C@@H](O)[C@@H]3O)cc2NC1=O` (stereo partly drawn) [Example 131] here?
Answer: 7.22 nM

Question: And the Ki ([2]; read-out: Plasma Kallikrein Ki)?
Answer: 20.8 nM

Question: Which Ki ([1]; read-out: Factor XIa Ki) does the source give for `COC(=O)Nc1ccc2c(c1)NC(=O)[C@H](C)CCC[C@H](N1CCC(c3c(F)ccc(Cl)c3F)=CC1=O)c1nc-2c(Cl)[nH]1` [Example 135, Methyl N-[(10R,14S)-17-chloro-14-[4-(3-chloro-2,6-difluorophenyl)-6-oxo-1,2,3,6-tetrahydropyridin-1-yl]-10-methyl-9-oxo-8,16,18-triazatricyclo[13.2.1.0^2,7]octadeca-1(17),2,4,6,15(18)-pentaen-5-yl]carbamate, TFA salt] here?
Answer: 0.05 nM

Question: What about the Ki ([2]; read-out: Plasma Kallikrein Ki) of the same molecule?
Answer: 0.56 nM

Question: Which results are given for `C[C@@H]1CCC[C@H](N2CCC(c3c(F)ccc(Cl)c3F)=CC2=O)c2cc(ccn2)-c2ccc(NC3O[C@H](CO)[C@@H](O)[C@H](O)[C@H]3O)cc2NC1=O` (stereo partly drawn) [Example 126, (10R,14S)-14-[4-(3-chloro-2,6-difluorophenyl)-6-oxo-1,2,3,6-tetrahydropyridin-1-yl]-10-methyl-5-{[(3R,4S,5S,6R)-3,4,5-trihydroxy-6-(hydroxymethyl)oxan-2-yl]amino}-8,16-diazatricyclo[13.3.1.0^2,7]nonadeca-1(19),2,4,6,15,17-hexaen-9-one]?
Answer: Ki ([1]; read-out: Factor XIa Ki): 16.1 nM; Ki ([2]; read-out: Plasma Kallikrein Ki): 37.6 nM

Question: `C[C@@H]1CCC[C@H](N2CCC(c3c(F)ccc(Cl)c3F)=CC2=O)c2cc(ccn2)-c2cc(CO)ccc2NC1=O` [Example 148, (10R,14S)-14-[4-(3-chloro-2,6-difluorophenyl)-6-oxo-1,2,3,6-tetrahydropyridin-1-yl]-4-(hydroxymethyl)-10-methyl-8,16-diazatricyclo[13.3.1.0^2,7]nonadeca-1(19),2(7),3,5,15,17-hexaen-9-one] was tested. Which Ki ([1]; read-out: Factor XIa Ki) did it give?
Answer: 90.1 nM

Question: What about the Ki ([2]; read-out: Plasma Kallikrein Ki) of the same molecule?
Answer: 118 nM

Question: For `COC(=O)c1ccc2c(c1)-c1cccc(c1)[C@H](N1CCC(c3c(Br)ccc(Cl)c3F)=CC1=O)CCC[C@@H](C)C(=O)N2` [Example 175, Methyl (10R,14R)-14-[4-(6-bromo-3-chloro-2-fluorophenyl)-6-oxo-1,2,3,6-tetrahydropyridin-1-yl]-10-methyl-9-oxo-8-azatricyclo[13.3.1.0^2,7]nonadeca-1(19),2,4,6,15,17-hexaene-4-carboxylate], which Ki ([1]; read-out: Factor XIa Ki) is on record?
Answer: > 625 nM

Question: What about the Ki ([2]; read-out: Plasma Kallikrein Ki) of the same molecule?
Answer: 3810 nM

Question: How did the Ki ([1]; read-out: Factor XIa Ki) turn out when `COC(=O)Nc1ccc2c(c1)NC(=O)[C@H](C)CCC[C@H](N1CCC(c3c(C)ccc(Cl)c3F)=CC1=O)c1cc-2ccn1` [Example 2, Methyl N-[(10R,14S)-14-[4-(3-chloro-2-fluoro-6-methylphenyl)-6-oxo-1,2,3,6-tetrahydropyridin-1-yl]-10-methyl-9-oxo-8,16-diazatricyclo[13.3.1.0^2,7]nonadeca-1(19),2,4,6,15,17-hexaen-5-yl]carbamate, TFA salt] was run?
Answer: 0.23 nM

Question: What about the Ki ([2]; read-out: Plasma Kallikrein Ki) of the same molecule?
Answer: 5 nM

Question: For `C[C@@H]1CCC[C@H](N2CCC(c3c(F)ccc(Cl)c3F)=CC2=O)c2cc(ccn2)-c2cc(C#N)ccc2NC1=O` [Example 138, (10R,14S)-14-[4-(3-chloro-2,6-difluorophenyl)-6-oxo-1,2,3,6-tetrahydropyridin-1-yl]-10-methyl-9-oxo-8,16-diazatricyclo[13.3.1.0^2,7]nonadeca-1(19),2(7),3,5,15,17-hexaene-4-carbonitrile], which Ki ([1]; read-out: Factor XIa Ki) is on record?
Answer: 36.2 nM

Question: What about the Ki ([2]; read-out: Plasma Kallikrein Ki) of the same molecule?
Answer: 31.7 nM

Question: Which results are given for `C[C@@H]1CCC[C@H](N2CCC(c3c(-c4cn[nH]c4)ccc(Cl)c3F)=CC2=O)c2cc(ccn2)-c2ccccc2NC1=O` [Example 55, (10R,14S)-14-{4-[3-Chloro-2-fluoro-6-(1H-pyrazol-4-yl)phenyl]-6-oxo-1,2,3,6-tetrahydropyridin-1-yl}-10-methyl-8,16-diazatricyclo[13.3.1.0^2,7]nonadeca-1(19),2,4,6,15,17-hexaen-9-one, TFA salt]?
Answer: Ki ([1]; read-out: Factor XIa Ki): 2.73 nM; Ki ([2]; read-out: Plasma Kallikrein Ki): 19 nM

Question: With `COC(=O)Nc1cc2c(cc1I)-c1ccnc(c1)[C@@H](N1CCC(c3c(F)ccc(Cl)c3F)=CC1=O)CCC[C@@H](C)C(=O)N2` [Example 62, Methyl N-[(10R,14S)-14-[4-(3-chloro-2,6-difluorophenyl)-6-oxo-1,2,3,6-tetrahydropyridin-1-yl]-4-iodo-10-methyl-9-oxo-8,16-diazatricyclo[13.3.1.0^2,7]nonadeca-1(19),2,4,6,15,17-hexaen-5-yl]carbamate, TFA salt] as the molecule, how does the Ki ([1]; read-out: Factor XIa Ki) read?
Answer: 196 nM

Question: What about the Ki ([2]; read-out: Plasma Kallikrein Ki) of the same molecule?
Answer: 1100 nM

Question: How did the Ki ([1]; TFA salt, read-out: Factor XIa Ki) turn out when `COC(=O)Nc1ccc2c(c1)NC(=O)[C@H](C)CCC[C@H](N1CCC(C3CCCC(C)C3)=CC1=O)c1cc-2ccn1` (single isomer, unassigned) [Example 218, TFA salt] was run?
Answer: 38.2 nM

Question: What about the Ki ([2]; TFA salt, read-out: Plasma Kallikrein Ki) of the same molecule?
Answer: 378 nM

Question: For `COC(=O)Nc1ccc2c(c1)NC(=O)[C@H](C)C(F)CC[C@H](N1CCC(c3c(F)ccc(Cl)c3F)=CC1=O)c1cc-2ccn1` (stereo partly drawn) [Example 180, Methyl N-[(10S,14S)-14-[4-(3-chloro-2,6-difluorophenyl)-6-oxo-1,2,3,6-tetrahydropyridin-1-yl]-11-fluoro-10-methyl-9-oxo-8,16-diazatricyclo[13.3.1.0^2,7]nonadeca-1(19),2(7),3,5,15,17-hexaen-5-yl]carbamate], which Ki ([1]; read-out: Factor XIa Ki) is on record?
Answer: 0.18 nM

Question: And the Ki ([2]; read-out: Plasma Kallikrein Ki)?
Answer: 2.42 nM

Question: With `COc1ccc2c(c1)NC(=O)[C@H](C)CCC[C@H](N1CCC(c3c(F)ccc(Cl)c3F)=CC1=O)c1cc-2ccn1` [Example 17, (10R,14S)-14-[4-(3-chloro-2,6-difluorophenyl)-6-oxo-1,2,3,6-tetrahydropyridin-1-yl]-5-methoxy-10-methyl-8,16-diazatricyclo[13.3.1.0^2,7]nonadeca-1(19),2,4,6,15,17-hexaen-9-one, TFA salt] as the molecule, how does the Ki ([1]; read-out: Factor XIa Ki) read?
Answer: 45.3 nM

Question: What about the Ki ([2]; read-out: Plasma Kallikrein Ki) of the same molecule?
Answer: 114 nM

Question: What does the source list for `C[C@@H]1CCC[C@H](n2ccc(-c3c(F)ccc(Cl)c3F)cc2=O)c2cc(ccn2)-c2ccncc2NC1=O` [Example 185, (10R,14S)-14-[4-(3-chloro-2,6-difluorophenyl)-2-oxo-1,2-dihydropyridin-1-yl]-10-methyl-5,8,16-triazatricyclo[13.3.1.0^2,7]nonadeca-1(19),2(7),3,5,15,17-hexaen-9-one]?
Answer: Ki [1]: 22.8 nM; Ki ([2]; Plasma Kallikrein Ki): 47.4 nM
